From patent publication US20130167838A1, “NASAL FORMULATION” (TEVA BRANDED PHARMACEUTICAL PRODUCTS, INC., priority 2011, published 2013)
Counter-ions that a name gives are not always drawn.

What was measured:
[1] = Stability of active ingredients in ethanol formulations with and without hydrochloric acid, stored at 60° C. for 21 days, HPLC; format: physicochemical; settings: ethanol formulations with vs without HCl, FIG. 2
Procedure: Further formulations were prepared containing the active ingredient(s) and ethanol with and without hydrochloric acid in order to test the stability of the active ingredients. The formulations were: Formulation (i): azelastine+BDP, with acid Formulation (ii): BDP without acid Formulation (iii): BDP with acid Formulation (iv): azelastine+BDP, without acid The precise ethanol formulations were as follows: [table] The formulations were stored at 60° C. for 21 days and the amounts of the active ingredients measured at intervals during the test period. The amounts of the active ingredients were measured using HPLC with external standards of azelastine free base and BDP. The results are shown graphically in FIG. 2. […] The BDP with no acid and no azelastine was […]. However, the combination of BDP with both acid and azelastine is […].

[2] = Solubility in an HFA/ethanol formulation; format: physicochemical
Excerpt: Azelastine has been marketed as the hydrochloride salt, but the problem is that the hydrochloride salt is not soluble in an HFA/ethanol formulation.

| stabilisation of the azelastine by including an acid (amount measured by HPLC) [1] | solubility in an HFA/ethanol formulation [2] | Structure (SMILES) |
| --- | --- | --- |
| some additional stabilisation |  | CN1CCCC(n2nc(Cc3ccc(Cl)cc3)c3ccccc3c2=O)CC1 (centres unmarked) [azelastine, Azelastine] |
|  | not soluble | CN1CCCC(n2nc(Cc3ccc(Cl)cc3)c3ccccc3c2=O)CC1 (centres unmarked) [hydrochloride salt, azelastine hydrochloride] |
